Patent publication US20250197374A1, “WEE1 DEGRADING COMPOUNDS AND USES THEREOF” (BRISTOL-MYERS SQUIBB COMPANY, priority 2023, published 2025)
Where two headings read alike, the source gives them in different places.

Key:
Type in all cases: cell-based
WEE1 = biological target: T1, WEE1 (Homo sapiens, UniProt P30291+Q96SW2); assay: WEE1-ePL degradation assay (293T-LentiX, InCELL Hunter luminescence, 4 hr); conditions: for 293T-LentiX WEE1-ePL Degradation 4 hr YMin (%): lower limit of fit, % of DMSO control signal remaining; for DC50: LentiX-HEK293T cells expressing WEE1-ePL, 4 hr incubation, read-out: 293T-LentiX WEE1-ePL Degradation 4 hr EC50
T1 construct: C-terminal ePL-tagged (DiscoverX, Fremont, CA) full-length WEE1 expression construct; expressed in transfected cells; host or cells: LentiX-HEK293T (Invitrogen), lentivirally transduced; the cells also over-express GSPT1-GN
In short: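 EC50 comes from a four-parameter logistic fit of ePL luminescence (InCELL Hunter), with DMSO control defining Ymax. Compounds ran as 10-point 3-fold dilutions from 1 or 10 µM for 4 h at 37 °C. Cells were HEK293T-LentiX with ePL-tagged full-length WEE1 and over-expressed Cereblon-resistant GSPT1-GN.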

MKN45 cells = assay: MKN45 cell proliferation assay (Cell-Titer-Glo, 120 hr); conditions: for MKN45 Cell Prolif. 120 hr YMin (%): minimal percent of DMSO control observed; for EC50: read-out: MKN45 Cell Prolif. 120 hr EC50
In short: (§1)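 Growth inhibition was read as CellTiter-Glo luminescence after 120 h at 37 °C in RPMI/10% FBS, with 400 MKN45 or 800 MDA-MB-231 cells seeded per well. Compounds were tested in 10-point half-log series starting at 1 or 10 uM (0.1% DMSO), in triplicate for MKN45 and duplicate for MDA-MB-231. EC50 values are four-parameter fits to %DMSO control, and Ymin-obs is the minimal observed %DMSO.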

MDA-MB-231 cells = assay: MDA-MB-231 cell proliferation assay (Cell-Titer-Glo, 120 hr); conditions: for EC50: read-out: MDA-MB 231 Cell Prolif. 120 hr EC50; for MDA-MB 231 Cell Prolif. 120 hr YMin (%): minimal percent of DMSO control observed
In short: as §1

[1] = Homo sapiens, MDA-MB-231, 120 h

T1 sequence (P30291 whole entry): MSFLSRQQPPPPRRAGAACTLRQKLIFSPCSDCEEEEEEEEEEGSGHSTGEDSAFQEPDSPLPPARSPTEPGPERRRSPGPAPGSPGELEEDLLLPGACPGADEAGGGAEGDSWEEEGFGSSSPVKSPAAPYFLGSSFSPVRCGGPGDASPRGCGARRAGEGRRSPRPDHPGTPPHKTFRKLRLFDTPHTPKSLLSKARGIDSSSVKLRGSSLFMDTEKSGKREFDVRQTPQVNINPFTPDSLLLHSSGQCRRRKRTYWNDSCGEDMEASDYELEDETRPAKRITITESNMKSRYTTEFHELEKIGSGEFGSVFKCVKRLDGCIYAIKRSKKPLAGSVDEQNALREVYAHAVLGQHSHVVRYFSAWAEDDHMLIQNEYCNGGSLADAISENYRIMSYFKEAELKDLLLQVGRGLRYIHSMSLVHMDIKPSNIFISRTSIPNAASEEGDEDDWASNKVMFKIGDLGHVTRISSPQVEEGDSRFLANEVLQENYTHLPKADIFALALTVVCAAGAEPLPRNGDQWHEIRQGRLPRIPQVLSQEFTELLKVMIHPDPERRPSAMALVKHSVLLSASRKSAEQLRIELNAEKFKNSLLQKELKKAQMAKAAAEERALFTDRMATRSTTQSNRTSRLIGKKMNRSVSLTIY
T1 sequence (Q96SW2 whole entry): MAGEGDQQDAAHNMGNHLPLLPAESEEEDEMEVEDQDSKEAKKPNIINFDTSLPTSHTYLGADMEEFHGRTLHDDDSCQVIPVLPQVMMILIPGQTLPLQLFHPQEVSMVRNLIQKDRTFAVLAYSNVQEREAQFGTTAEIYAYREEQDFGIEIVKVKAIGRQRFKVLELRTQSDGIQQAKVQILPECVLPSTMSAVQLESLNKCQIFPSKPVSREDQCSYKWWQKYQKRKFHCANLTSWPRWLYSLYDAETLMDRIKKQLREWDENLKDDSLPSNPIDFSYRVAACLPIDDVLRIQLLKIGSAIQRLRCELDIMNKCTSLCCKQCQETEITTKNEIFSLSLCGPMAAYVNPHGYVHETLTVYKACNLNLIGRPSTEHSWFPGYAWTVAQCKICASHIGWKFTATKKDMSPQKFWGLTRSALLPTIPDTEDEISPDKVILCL
T1 sequence (Q16531 whole entry partner): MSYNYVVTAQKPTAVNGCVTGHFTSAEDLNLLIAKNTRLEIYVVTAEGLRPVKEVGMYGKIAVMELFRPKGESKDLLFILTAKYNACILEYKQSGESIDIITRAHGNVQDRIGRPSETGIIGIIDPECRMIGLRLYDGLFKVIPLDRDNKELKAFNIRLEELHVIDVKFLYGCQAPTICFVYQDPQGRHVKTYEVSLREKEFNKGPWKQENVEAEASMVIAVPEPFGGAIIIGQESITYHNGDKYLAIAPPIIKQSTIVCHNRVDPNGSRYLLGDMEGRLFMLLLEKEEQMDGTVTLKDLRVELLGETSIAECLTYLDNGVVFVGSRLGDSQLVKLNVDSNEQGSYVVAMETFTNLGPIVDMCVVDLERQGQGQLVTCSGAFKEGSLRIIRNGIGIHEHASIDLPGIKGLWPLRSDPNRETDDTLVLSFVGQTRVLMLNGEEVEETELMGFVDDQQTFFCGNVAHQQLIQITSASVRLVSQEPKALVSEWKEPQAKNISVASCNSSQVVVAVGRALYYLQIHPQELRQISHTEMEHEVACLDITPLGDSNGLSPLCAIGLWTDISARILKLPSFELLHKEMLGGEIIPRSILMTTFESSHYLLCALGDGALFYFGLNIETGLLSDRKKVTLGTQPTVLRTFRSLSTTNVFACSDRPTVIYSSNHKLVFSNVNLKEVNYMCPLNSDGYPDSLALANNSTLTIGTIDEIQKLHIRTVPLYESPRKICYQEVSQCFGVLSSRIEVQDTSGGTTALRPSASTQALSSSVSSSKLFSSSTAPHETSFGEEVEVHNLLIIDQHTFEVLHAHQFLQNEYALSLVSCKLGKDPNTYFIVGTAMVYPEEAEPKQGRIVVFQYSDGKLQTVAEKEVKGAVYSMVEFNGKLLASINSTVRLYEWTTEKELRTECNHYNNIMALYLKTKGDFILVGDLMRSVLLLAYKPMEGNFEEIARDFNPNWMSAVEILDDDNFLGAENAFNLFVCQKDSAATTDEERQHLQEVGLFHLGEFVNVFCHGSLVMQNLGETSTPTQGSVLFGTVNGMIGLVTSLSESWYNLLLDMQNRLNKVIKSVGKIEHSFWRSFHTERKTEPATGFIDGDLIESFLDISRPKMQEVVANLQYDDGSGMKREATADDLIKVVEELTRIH

Row | 293T-LentiX WEE1-ePL Degradation 4 hr YMin (%) (WEE1) | EC50 (MDA-MB-231 cells; [1]) [nM] | DC50 (WEE1) [nM] | EC50 (MKN45 cells; Homo sapiens, MKN-45, 120 h) [nM] | EC50 (MDA-MB-231 cells) [nM] | EC50 (MKN45 cells) [nM] | SMILES | MKN45 Cell Prolif. 120 hr YMin (%) (MKN45 cells) | MDA-MB 231 Cell Prolif. 120 hr YMin (%) (MDA-MB-231 cells)
1 | 82.5 | 3490 |  |  |  |  | O=C1CC[C@H](N2Cc3cc(O[C@@H]4CN(Cc5cc(F)c6nc(C7CCOCC7)ccc6c5)C[C@H]4C4CCCC4)ccc3C2=O)C(=O)N1 (relative stereo) [Example 123, (S)-3-(5-(((3S*,4R*)-4-Cyclopentyl-1-((8-fluoro-2-(tetrahydro-2H-pyran-4-yl)-quinolin-6-yl)methyl)pyrrolidin-3-yl)oxy)-1-oxoisoindolin-2-yl)piperidine-2,6-dione] | 80.9 | 81.9
2 | 20.2 | 278 | 3 | 12 |  |  | Cc1cc([C@@H]2CN(Cc3cc(F)c4nc(C5CCOCC5)ccc4c3)C[C@H]2Oc2ccc3c(c2)CN([C@H]2CCC(=O)NC2=O)C3=O)cc(C)n1 (relative stereo) [Example 127, (3S)-3-(5-{[(3S*,4R*)-4-(2,6-dimethylpyridin-4-yl)-1-{[8-fluoro-2-(oxan-4-yl)quinolin-6-yl]methyl}pyrrolidin-3-yl]oxy}-1-oxo-2,3-dihydro-1H-isoindol-2-yl)piperidine-2,6-dione] | 9.8 | 40.1
3 | 24.2 | 585 | 1 | 3 |  |  | O=C1CC[C@H](N2Cc3cc(O[C@H]4CN(Cc5cc(F)c6nc(C7CCOCC7)ccc6c5)C[C@@H]4C4CCCC4)ccc3C2=O)C(=O)N1 (relative stereo) [Example 146, (S)-3-(5-(((3R*,4S*)-4-Cyclopentyl-1-((8-fluoro-2-(tetrahydro-2H-pyran-4-yl)-quinolin-6-yl)methyl)pyrrolidin-3-yl)oxy)-1-oxoisoindolin-2-yl)piperidine-2,6-dione] | 10.8 | 50.7
4 | 93.2 | 443 |  | 308 |  |  | Cc1cc([C@H]2CN(Cc3cc(F)c4nc(C5CCOCC5)ccc4c3)C[C@@H]2Oc2ccc3c(c2)CN([C@H]2CCC(=O)NC2=O)C3=O)cc(C)n1 (relative stereo) [Example 147, (S)-3-(5-(((3R*,4S*)-4-(2,6-dimethylpyridin-4-yl)-1-((8-fluoro-2-(tetrahydro-2H-pyran-4-yl)quinolin-6-yl)methyl)pyrrolidin-3-yl)oxy)-1-oxoisoindolin-2-yl)piperidine-2,6-dione] | 92.2 | 79.7
5 | 24.4 | 429 | 7 | 23 |  |  | O=C1CC[C@H](N2Cc3cc(O[C@H]4CN(Cc5cc(F)c6nc(C7CCOCC7)ccc6c5)C[C@@H]4c4ccncc4)ccc3C2=O)C(=O)N1 (relative stereo) [Example 149, ((S)-3-(5-(((3R*,4S*)-1-((8-fluoro-2-(tetrahydro-2H-pyran-4-yl)quinolin-6-yl)methyl)-4-(pyridin-4-yl)pyrrolidin-3-yl)oxy)-1-oxoisoindolin-2-yl)piperidine-2,6-dione] | 11.0 | 68.7
6 | 33.4 |  | 339 |  | 234 | 53 | CN1CC2(CC(c3ccc4cc(CN5CC[C@H](Oc6ccc7c(c6)CN([C@H]6CCC(=O)NC6=O)C7=O)C5)ccc4n3)CO2)C1 (single isomer, unassigned) [Example 2, (S)-3-(5-(((S)-1-((2-((S*)-2-methyl-5-oxa-2-azaspiro[3.4]octan-7-yl)quinolin-6-yl)methyl)pyrrolidin-3-yl)oxy)-1-oxoisoindolin-2-yl)piperidine-2,6-dione] | 28.1 | 73.8
7 | 32.3 | 12 | 1 | 1 |  |  | COC[C@@H]1CN(Cc2ccc3nc(N4C[C@H]5CCO[C@H]5C4)ccc3c2)C[C@H]1Oc1ccc2c(c1)CN([C@H]1CCC(=O)NC1=O)C2=O (single isomer, unassigned) [Example 5, (S)-3-(5-(((3S,4S)-1-((2-((3aR*,6aR*)-hexahydro-5H-furo[2,3-c]pyrrol-5-yl)quinolin-6-yl)methyl)-4-(methoxymethyl)pyrrolidin-3-yl)oxy)-1-oxoisoindolin-2-yl)piperidine-2,6-dione] | 10.6 | 45.5
8 | 31.9 | 74 | 1 | 5 |  |  | O=C1CC[C@H](N2Cc3cc(O[C@H]4CCN(Cc5cc(F)c6nc(N7C[C@H]8CCO[C@H]8C7)ccc6c5)C4)ccc3C2=O)C(=O)N1 (single isomer, unassigned) [Example 7, (S)-3-(5-(((S)-1-((8-fluoro-2-((3aR*,6aR*)-hexahydro-5H-furo[2,3-c]pyrrol-5-yl)quinolin-6-yl)methyl)pyrrolidin-3-yl)oxy)-1-oxoisoindolin-2-yl)piperidine-2,6-dione] | 13.7 | 64.0

The next lines start with the compound.

Row | SMILES | 293T-LentiX WEE1-ePL Degradation 4 hr YMin (%) (WEE1) | EC50 (MDA-MB-231 cells; [1]) [nM] | DC50 (WEE1) [nM] | EC50 (MKN45 cells; Homo sapiens, MKN-45, 120 h) [nM] | EC50 (MDA-MB-231 cells) [nM] | EC50 (MKN45 cells) [nM] | MKN45 Cell Prolif. 120 hr YMin (%) (MKN45 cells) | MDA-MB 231 Cell Prolif. 120 hr YMin (%) (MDA-MB-231 cells)
9 | CC(C)C[C@@H]1CN(Cc2cc(F)c3nc(C4CCOCC4)ccc3c2)C[C@H]1Oc1ccc2c(c1)CN([C@H]1CCC(=O)NC1=O)C2=O (relative stereo) [Example 130, (3S)-3-(5-{[(3S*,4R*)-1-{[8-fluoro-2-(oxan-4-yl)quinolin-6-yl]methyl}-4-(2-methylpropyl)pyrrolidin-3-yl]oxy}-1-oxo-2,3-dihydro-1H-isoindol-2-yl)piperidine-2,6-dione] | 78.0 | 5960 | 6 | 1 |  |  | 94.4 | 84.1
10 | O=C1CC[C@H](N2Cc3cc(O[C@H]4CN(Cc5cc(F)c6nc(C7CCOCC7)ccc6c5)C[C@@H]4c4ccccc4)ccc3C2=O)C(=O)N1 (relative stereo) [Example 145, (S)-3-(5-(((3R*,4S*)-1-((8-fluoro-2-(tetrahydro-2H-pyran-4-yl)quinolin-6-yl)methyl)-4-phenylpyrrolidin-3-yl)oxy)-1-oxoisoindolin-2-yl)piperidine-2,6-dione] | 22.4 | 2370 | 4 | 33 |  |  | 16.3 | 74.7
11 | CC(C)C[C@H]1CN(Cc2cc(F)c3nc(C4CCOCC4)ccc3c2)C[C@@H]1Oc1ccc2c(c1)CN([C@H]1CCC(=O)NC1=O)C2=O (relative stereo) [Example 148, (3S)-3-(5-{[(3R*,4S*)-1-{[8-fluoro-2-(oxan-4-yl)quinolin-6-yl]methyl}-4-(2-methylpropyl)pyrrolidin-3-yl]oxy}-1-oxo-2,3-dihydro-1H-isoindol-2-yl)piperidine-2,6-dione] | 28.4 | 207 | 1 | 3 |  |  | 9.9 | 74.8
12 | CN1CC2(CC(c3ccc4cc(CN5CC[C@H](Oc6ccc7c(c6)CN([C@H]6CCC(=O)NC6=O)C7=O)C5)ccc4n3)CO2)C1 (single isomer, unassigned) [Example 1, (S)-3-(5-(((S)-1-((2-((R*)-2-methyl-5-oxa-2-azaspiro[3.4]octan-7-yl)quinolin-6-yl)methyl)pyrrolidin-3-yl)oxy)-1-oxoisoindolin-2-yl)piperidine-2,6-dione] | 30.7 |  | 368 | 75 | 1560 |  | 16.1 | 70.9
13 | CN1CC[C@]2(C[C@@H](c3ccc4cc(CN5CC[C@H](Oc6ccc7c(c6)CN([C@H]6CCC(=O)NC6=O)C7=O)C5)ccc4n3)CO2)C1 (single isomer, unassigned) [Example 4] | 30.9 | 146 | 14 | 23 |  |  | 12.6 | 61.3
14 | O=C1CC[C@H](N2Cc3cc(O[C@@H]4CN(Cc5ccc6nc(N7C[C@H]8CCO[C@H]8C7)ccc6c5)CC4(F)F)ccc3C2=O)C(=O)N1 (single isomer, unassigned) [Example 6, (S)-3-(5-(((R)-4,4-difluoro-1-((2-((3aR*,6aR*)-hexahydro-5H-furo[2,3-c]pyrrol-5-yl)quinolin-6-yl)methyl)pyrrolidin-3-yl)oxy)-1-oxoisoindolin-2-yl)piperidine-2,6-dione] | 27.4 | 63 | 2 | 5 |  |  | 11.8 | 62.4
